In patent US20090137549A1, “Novel compounds useful for the treatment of degenerative & inflamatory diseases” (priority 2006, published 2009):
Structures can show the parent of a compound that is named as a salt.

Target: PDE1A (Homo sapiens, UniProt P54750)
Test: PDE1A dose response, Cyclic Nucleotide Phosphodiesterase Assay Kit from Biomol (colorimetric)
Format: biochemical
Settings: purified PDE1A enzyme, 100 μM cAMP
Method in brief: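 Purified PDE1A hydrolysed 100 μM cAMP with 5′-nucleotidase in Tris 20 mM pH 7.4 with calmodulin, Ca2+, Mg2+, 45 min at 37° C. Released phosphate read by malachite-green absorbance at 615 nm. Duplicate 8-point 1/3 dilutions from 20 μM, 1% DMSO; 10 μM vardenafil defined 100% inhibition.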

| SMILES | IC50 [nM] |
| --- | --- |
| O=C(NC1CCCNC1)N1CC(c2nc3c(cnn3C3CCCCC3)c(=O)[nH]2)C1 (centres unmarked) [Example 182, 3-(1-Cyclohexyl-4-oxo-4,5-dihydro-1H-pyrazolo[3,4-d]pyrimidin-6-yl)-azetidine-1-carboxylic acid piperidin-3-ylamide trifluoroacetate] | 501 to 1000 |
| O=C(NCCN1CCCC1)N1CC(c2nc3c(cnn3C3CCCCC3)c(=O)[nH]2)C1 [Example 84, 3-(1-cyclohexyl-4-oxo-4,5-dihydro-1H-pyrazolo[3,4-d]pyrimidin-6-yl)-N-(2-(pyrrolidin-1-yl)ethyl)azetidine-1-carboxamide] | 501 to 1000 |
| Cc1nn(C2CCCCC2)c2nc(C3CCCN(C(=O)c4ccsc4)C3)[nH]c(=O)c12 (centres unmarked) [Example 97, 1-cyclohexyl-3-methyl-6-(1-(thiophene-3-carbonyl)piperidin-3-yl)-1H-pyrazolo[3,4-d]pyrimidin-4(5H)-one] | 1000 to 1500 |
| COc1ccccc1C(=O)N1CCCC(c2nc3c(cnn3C3CCCCC3)c(=O)[nH]2)C1 (centres unmarked) [Example 48, 1-cyclohexyl-6-(1-(2-methoxybenzoyl)piperidin-3-yl)-1H-pyrazolo[3,4-d]pyrimidin-4(5H)-one] | 101 to 500 |
| O=c1[nH]c(C2CN(c3ccccc3CN3CCOCC3)C2)nc2c1cnn2C1CCCCC1 [Example 156, 1-Cyclohexyl-6-(1-(2-(morpholinomethyl)phenyl)azetidin-3-yl)-1H-pyrazolo[3,4-d]pyrimidin-4(5H)-one] | 101 to 500 |
| O=C(c1ccc2c(c1)OCO2)N1CCCC(c2nc3c(cnn3C3CCCCC3)c(=O)[nH]2)C1 (centres unmarked) [Example 76, 6-(1-(benzo[d][1,3]dioxole-5-carbonyl)piperidin-3-yl)-1-cyclohexyl-1H-pyrazolo[3,4-d]pyrimidin-4(5H)-one] | 101 to 500 |
| COc1ccc(S(=O)(=O)N2CCCC(c3nc4c(c(C)nn4-c4ccccc4)c(=O)[nH]3)C2)cc1 (centres unmarked) [Example 75, 6-(1-(4-methoxyphenylsulfonyl)piperidin-3-yl)-3-methyl-1-phenyl-1H-pyrazolo[3,4-d]pyrimidin-4(5H)-one] | 101 to 500 |
| O=C(NCCN1CCOCC1)N1CC(c2nc3c(cnn3C3CCCCC3)c(=O)[nH]2)C1 [Example 61, 3-(1-cyclohexyl-4-oxo-4,5-dihydro-1H-pyrazolo[3,4-d]pyrimidin-6-yl)-N-(2-morpholinoethyl)azetidine-1-carboxamide] | 101 to 500 |
| CCCCCS(=O)(=O)N1CC(c2nc3c(cnn3C3CCCCC3)c(=O)[nH]2)C1 [Example 104, 1-cyclohexyl-6-(1-(pentylsulfonyl)azetidin-3-yl)-1H-pyrazolo[3,4-d]pyrimidin-4(5H)-one] | 1000 to 1500 |

Other lines, results leading:

| IC50 [nM] | SMILES |
| --- | --- |
| 101 to 500 | CN(C)c1ccc(C(=O)N2CCCC(c3nc4c(cnn4-c4ccccc4)c(=O)[nH]3)C2)cc1 (centres unmarked) [Example 67, 6-(1-(4-(dimethylamino)benzoyl)piperidin-3-yl)-1-phenyl-1H-pyrazolo[3,4-d]pyrimidin-4(5H)-one] |
| 1 to 100 | O=C(Nc1cccc(Cl)c1)N1CC(c2nc3c(cnn3C3CCCCC3)c(=O)[nH]2)C1 [Example 8, N-(3-chlorophenyl)-3-(1-cyclohexyl-4-oxo-4,5-dihydro-1H-pyrazolo[3,4-d]pyrimidin-6-yl)azetidine-1-carboxamide] |
| 1 to 100 | Cc1nn(C2CCCCC2)c2nc(C3CN(C(=O)NCc4ccc(F)cc4)C3)[nH]c(=O)c12 [Example 27, 3-(1-cyclohexyl-3-methyl-4-oxo-4,5-dihydro-1H-pyrazolo[3,4-d]pyrimidin-6-yl)-N-(4-fluorobenzyl)azetidine-1-carboxamide] |
| 1 to 100 | O=C(NCc1ccc(Cl)c(Cl)c1)N1CC(c2nc3c(cnn3C3CCCCC3)c(=O)[nH]2)C1 [Example 37, 3-(1-cyclohexyl-4-oxo-4,5-dihydro-1H-pyrazolo[3,4-d]pyrimidin-6-yl)-N-(3,4-dichlorobenzyl)azetidine-1-carboxamide] |
| 1 to 100 | Cc1nn(C2CCCCC2)c2nc(C3CN(C(=O)Nc4ccc(F)cc4)C3)[nH]c(=O)c12 [Example 21, 3-(1-cyclohexyl-3-methyl-4-oxo-4,5-dihydro-1H-pyrazolo[3,4-d]pyrimidin-6-yl)-N-(4-fluorophenyl)azetidine-1-carboxamide] |
